One assay addresses T1, FLT-3 kinase (Homo sapiens, UniProt P36888).
T1 construct: human FLT-3 (Arg571-Ser993); GST (N); purchased Cell Signaling Technology HTScan FLT-3 Kinase Assay Kit; host or cells: baculovirus expression system
T1 sequence (P36888 571-993): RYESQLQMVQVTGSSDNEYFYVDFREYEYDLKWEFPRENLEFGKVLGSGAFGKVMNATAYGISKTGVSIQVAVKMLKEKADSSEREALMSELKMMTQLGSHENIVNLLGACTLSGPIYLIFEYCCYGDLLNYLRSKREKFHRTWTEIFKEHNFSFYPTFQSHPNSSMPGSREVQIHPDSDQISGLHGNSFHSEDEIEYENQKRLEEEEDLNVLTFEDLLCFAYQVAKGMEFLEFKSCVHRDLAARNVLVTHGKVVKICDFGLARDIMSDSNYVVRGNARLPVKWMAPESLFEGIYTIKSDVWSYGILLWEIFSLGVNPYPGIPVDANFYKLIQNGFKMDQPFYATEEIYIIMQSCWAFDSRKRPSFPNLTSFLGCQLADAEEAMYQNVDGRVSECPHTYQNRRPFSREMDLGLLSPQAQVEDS
Nature of the assay: FLT-3 kinase DELFIA assay (HTScan FLT-3 Kinase Assay Kit). The conditions noted are these: 20 uM ATP; for inhibition at 0.1 µM: 0.1 uM compound; for inhibition at 1 µM: 1 uM compound. Type of assay: biochemical.

For assay [1], the system named is MV4-11 (FLT3-ITD) cell line. Briefly: In vitro cell activity assay (MTT cell viability, 72 hours). It is filed as cell-based. The following applies: Homo sapiens, 72 hours at 37° C., 10,000 cells per well, read-out: IC50 against MV4-11. In short, it runs like this:
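Compound serial dilutions applied to MV4-11 (FLT3-ITD) cells, 10,000 per well, for 72 hours at 37° C. Viability by MTT, formazan dissolved in DMSO, absorbance at 600 nm; IC50 by nonlinear regression as concentration halving absorbance versus untreated cells.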

The target in the next assay is T2, c-KIT kinase (Homo sapiens, UniProt P10721).
T2 construct: human c-KIT (Thr544-Val976); GST (N); purchased Cell Signaling Technology HTScan c-KIT Kinase Assay Kit; host or cells: baculovirus expression system
T2 sequence (P10721 544-976): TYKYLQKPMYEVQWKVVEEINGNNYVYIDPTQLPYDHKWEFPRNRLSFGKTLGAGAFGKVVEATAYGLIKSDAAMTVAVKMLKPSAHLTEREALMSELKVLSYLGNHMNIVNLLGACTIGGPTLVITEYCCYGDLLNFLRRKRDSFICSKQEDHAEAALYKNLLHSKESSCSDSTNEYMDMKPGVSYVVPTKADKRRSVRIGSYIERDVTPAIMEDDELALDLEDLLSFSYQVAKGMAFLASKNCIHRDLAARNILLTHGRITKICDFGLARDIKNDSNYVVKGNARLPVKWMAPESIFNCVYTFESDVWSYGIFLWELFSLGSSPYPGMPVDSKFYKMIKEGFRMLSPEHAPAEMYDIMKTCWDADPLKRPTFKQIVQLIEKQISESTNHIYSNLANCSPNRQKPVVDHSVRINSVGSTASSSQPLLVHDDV
Briefly: c-KIT kinase DELFIA assay (HTScan c-KIT Kinase Assay Kit). It is filed as biochemical. The following applies: 20 uM ATP; for inhibition at 0.1 µM: 0.1 uM compound; for inhibition at 1 µM: 1 uM compound. The procedure:
(§1) Azaazulene Compounds of this invention were treated for their efficacy in inhibiting activities of FLT-3, c-KIT and KDR kinases by biochemical DELFIA (Dissociation Enhanced Lanthanide FIA) assays according to the procedure described below. The assays were conducted by, Division of Cell Engineering, Biomedical Engineering Research Laboratories, Industrial Technology Research Institute, Bldg. 53, 195, sec. 4, Chung Hsing Rd. Chutung, Hsinchu, Taiwan 310, R.O.C.
The c-KIT assay was conducted following the protocol described in Protocol for HTScan® c-KIT Kinase Assay Kit (Cell Signaling Technology®).

A further assay deals with T3, KDR kinase (Homo sapiens, UniProt P35968).
T3 construct: human VEGFR-2 (Val789-Val1356); GST (N); purchased Cell Signaling Technology HTScan VEGFR-2 Kinase Assay Kit; host or cells: baculovirus expression system
T3 sequence (P35968 789-1356): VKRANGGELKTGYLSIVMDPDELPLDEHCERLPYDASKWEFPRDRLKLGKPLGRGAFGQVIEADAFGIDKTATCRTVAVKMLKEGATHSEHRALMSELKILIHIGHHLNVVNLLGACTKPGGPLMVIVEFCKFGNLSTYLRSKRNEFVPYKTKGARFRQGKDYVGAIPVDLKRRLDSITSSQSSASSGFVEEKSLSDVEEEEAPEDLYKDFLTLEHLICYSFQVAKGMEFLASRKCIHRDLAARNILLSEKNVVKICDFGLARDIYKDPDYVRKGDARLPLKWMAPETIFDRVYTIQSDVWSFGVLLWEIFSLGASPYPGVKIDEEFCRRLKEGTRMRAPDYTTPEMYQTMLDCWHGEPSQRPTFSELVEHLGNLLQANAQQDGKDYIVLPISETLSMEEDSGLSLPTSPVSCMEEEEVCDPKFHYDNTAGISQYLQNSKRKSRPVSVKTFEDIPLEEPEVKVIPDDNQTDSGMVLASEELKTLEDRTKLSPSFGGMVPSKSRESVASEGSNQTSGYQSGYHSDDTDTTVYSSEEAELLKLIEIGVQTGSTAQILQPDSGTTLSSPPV
Briefly: KDR kinase DELFIA assay (HTScan VEGFR-2 Kinase Assay Kit). Type of assay: biochemical. The conditions noted are these: 20 uM ATP; for inhibition at 1 µM: 1 uM compound, read-out: Kinases inhibitory activities against KDR kinase, 1 uM; for inhibition at 0.1 µM: 0.1 uM compound, read-out: Kinases inhibitory activities against KDR kinase, 0.1 uM. The procedure:
as §1
The KDR assay was conducted following the protocol described in Protocol for HTScan™ VEGFR-2 Kinase Assay Kit (Cell Signaling Technology™).

Turning to `CCN(CC)CCn1c2cccccc-2c(-c2nc3ccccc3[nH]2)c1=O` [Compound B1], the inhibition at 0.1 µM came to 8.4% against FLT-3 kinase and 31.2% on c-KIT kinase. Also, the inhibition at 1 µM came out at 10.4% at FLT-3 kinase, 41.1% on c-KIT kinase and 3.7% at KDR kinase. For the same molecule, the IC50 in assay [1] is 1000 to 5000 nM.
As for `O=c1[nH]c2cccccc-2c1-c1nc2cc(F)ccc2[nH]1` [Compound B2], the inhibition at 0.1 µM at FLT-3 kinase worked out at 18.9%; against c-KIT kinase, 6.4%; at KDR kinase it was 78.3%. The inhibition at 1 µM against FLT-3 kinase was 59.9%; on c-KIT kinase, 57.9%; on KDR kinase, 94.5%. Moreover, the IC50 in assay [1] lay in the range of 1000 to 5000 nM.
In the case of `O=c1[nH]c2cccccc-2c1-c1nc2cc(C(F)(F)F)ccc2[nH]1` [Compound B4], the inhibition at 0.1 µM at FLT-3 kinase stood at 13.7%; on c-KIT kinase it was 5%; at KDR kinase it was 14.4%. Also, the results for the inhibition at 1 µM on FLT-3 kinase, against c-KIT kinase and on KDR kinase were 37.1%, 37.6% and 17.8%, respectively. In addition, in assay [1], the IC50 lay within 1000 to 5000 nM.
Consider `O=c1[nH]c2cccccc-2c1-c1nc2cc([N+](=O)[O-])ccc2[nH]1` [Compound B5], for which the inhibition at 0.1 µM at FLT-3 kinase was found to be 12.8%; at c-KIT kinase, 15.2%; on KDR kinase it was 31.7%. Further, the results for the inhibition at 1 µM against FLT-3 kinase, on c-KIT kinase and at KDR kinase were 27.1%, 56.8% and 45.3%, respectively. Further, in assay [1], the IC50 worked out at 1300 nM.
On to `Nc1ccc2[nH]c(-c3c4cccccc-4[nH]c3=O)nc2c1` [Compound B6], for which the inhibition at 0.1 µM was 12.8% against FLT-3 kinase, 32.6% at c-KIT kinase and 29.7% on KDR kinase. Also, the inhibition at 1 µM on FLT-3 kinase turned out to be 45.1%; on c-KIT kinase, 62.6%; on KDR kinase, 63.3%. In addition, in assay [1], the IC50 worked out at 916 nM.
For the molecule `O=C(O)c1ccc2[nH]c(-c3c4cccccc-4[nH]c3=O)nc2c1` [Compound B7], the values for the inhibition at 1 µM against FLT-3 kinase, at c-KIT kinase and on KDR kinase were 8.7%, 57.3% and 46.1%, respectively. In assay [1], the IC50 is greater than 5000 nM. Moreover, the inhibition at 0.1 µM on c-KIT kinase turned out to be 34.8%; on KDR kinase, 20.2%.
`O=c1[nH]c2cccccc-2c1-c1nc2cc(O)ccc2[nH]1` [Compound B8]: the inhibition at 0.1 µM at FLT-3 kinase came to 9.8%; on c-KIT kinase, 42.2%; at KDR kinase it was 15.9%. Moreover, the inhibition at 1 µM at FLT-3 kinase came out at 68.5%; against c-KIT kinase, 75.5%; on KDR kinase, 63.8%. For the same molecule, the IC50 in assay [1] is roughly 500 nM.
Take `O=c1[nH]c2cccccc-2c1-c1cn2ccccc2n1` [Compound B9]: the inhibition at 0.1 µM worked out at 5.8% on FLT-3 kinase, 16% at c-KIT kinase and 0.5% at KDR kinase. Moreover, the inhibition at 1 µM came out at 19.1% at FLT-3 kinase, 24.4% against c-KIT kinase and 13.2% on KDR kinase. In addition, the IC50 in assay [1] lay within 1000 to 5000 nM.
Regarding `O=c1[nH]c2cccccc-2c1-c1nc2cccnc2[nH]1` [Compound B15], the inhibition at 0.1 µM against FLT-3 kinase was found to be 8.6%; on c-KIT kinase, 8.5%. Besides, the inhibition at 1 µM was 18.1% against FLT-3 kinase and 43.1% on c-KIT kinase. In assay [1], the IC50 lay within 1000 to 5000 nM.
In the same order, the values of `CN(C)CCCN(C)c1ccc2[nH]c(-c3c4cccccc-4[nH]c3=O)nc2c1` [Compound B21] are 20.1%, 10.8%, 63%, 55.4% and 428 nM.
In the same order, the values of `C[N+]1([O-])CC[N+]([O-])(c2ccc3[nH]c(-c4c5cccccc-5[nH]c4=O)nc3c2)CC1` (stereo not shown) [Compound B70] are 11.1%, 40.5%, 27.5%, 86.6% and roughly 1000 nM.
In the same order, the values of `O=c1[nH]c2cccccc-2c1-c1nc2cc(N3CCCN(CCF)CC3)ccc2[nH]1` [Compound B80] are 23.1%, 56.7%, 71.4%, 82.9% and 796 nM.
On FLT-3 kinase, `O=c1[nH]c2cccccc-2c1-c1nc2cc(N3CCCNCC3)ccc2n1CCCF` [Compound B81] gave an inhibition at 0.1 µM of 9.9% and an inhibition at 1 µM of 21%. Moreover, the IC50 in assay [1] was 208 nM. At c-KIT kinase, this molecule gave an inhibition at 0.1 µM of 28.9% and an inhibition at 1 µM of 17.2%.
`O=c1[nH]c2cccccc-2c1-c1nc2cc(N3CCCN(CCCF)CC3)ccc2[nH]1` [Compound B82]: at FLT-3 kinase, the inhibition at 0.1 µM was found to be 30.3% and the inhibition at 1 µM was 81.6%. In assay [1], the IC50 worked out at 18.6 nM. Besides, on c-KIT kinase, the inhibition at 0.1 µM was 31% and the inhibition at 1 µM came out at 91.1%.
With `O=c1[nH]c2cccccc-2c1-c1nc2cc(N3CCCN(CCCF)CC3)ccc2n1CCCF` [Compound B83], on FLT-3 kinase, the inhibition at 0.1 µM is 11% and the inhibition at 1 µM stood at 21.2%. Further, in assay [1], the IC50 stood at 227 nM. Moreover, on c-KIT kinase, the inhibition at 1 µM came to 19.7%.
In the case of `O=c1[nH]c2cccccc-2c1-c1nc2cc(N3CCCN(Cc4cccnc4)CC3)ccc2[nH]1` [Compound B87], on FLT-3 kinase, the inhibition at 0.1 µM amounted to 39.8% and the inhibition at 1 µM stood at 91.6%. In addition, the IC50 in assay [1] turned out to be 88.6 nM. Moreover, at c-KIT kinase, the inhibition at 0.1 µM came to 49.6% and the inhibition at 1 µM was 96.2%.
In the same order, the values of `O=CN1CCCN(c2ccc3[nH]c(-c4c5cccccc-5[nH]c4=O)nc3c2)CC1` [Compound B88] are 20.6%, 62.4%, 144 nM, 47.2% and 89.2%.
For the molecule `O=c1[nH]c2cccccc-2c1-c1nc2cc(N3CCCN(c4ccccn4)CC3)ccc2[nH]1` [Compound B94], the inhibition at 0.1 µM at FLT-3 kinase was 17%; at c-KIT kinase it was 12.3%. Also, the inhibition at 1 µM was determined as 52.3% at FLT-3 kinase and 79.1% against c-KIT kinase. In addition, in assay [1], the IC50 was found to be 852 nM.
Consider `O=c1[nH]c2cccccc-2c1-c1nc2cc(N3CCCN(c4ncccc4[N+](=O)[O-])CC3)ccc2[nH]1` [Compound B95], for which the inhibition at 0.1 µM at FLT-3 kinase was determined as 14.4%; at c-KIT kinase, 48.3%. The inhibition at 1 µM worked out at 37.7% at FLT-3 kinase and 82.6% against c-KIT kinase. Moreover, in assay [1], the IC50 came out at 771 nM.
In the same order, the values of `Cc1cc(N2CCCN(c3ccc4[nH]c(-c5c6cccccc-6[nH]c5=O)nc4c3)CC2)nc(N(C)C)n1` [Compound B97] are 8.8%, 40.1%, 44.6%, 87.2% and 100 to 500 nM.
As to `O=C(Nc1ccc(Cl)c(C(F)(F)F)c1)Nc1ccc2[nH]c(-c3c4cccccc-4[nH]c3=O)nc2c1` [Compound B118], the inhibition at 0.1 µM against FLT-3 kinase was 57.9%; at c-KIT kinase it was 66.6%. The inhibition at 1 µM on FLT-3 kinase was determined as 76.3%; at c-KIT kinase, 36.8%. For the same molecule, the IC50 in assay [1] was 64.1 nM.

For orientation: IC50 means the point on the concentration scale where inhibition reaches its midpoint.
